# From PubChem BioAssay (NCI)
#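 Briefly, cells in 96-well plates were exposed to five compound concentrations for 48 h, and endpoints were estimated by linear interpolation. GI50 marks 50% less growth. At the TGI there is no net growth.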
# Key:
# Test in all cases: NCI-60 cell line screen, 48 h
# [1] = system: LOX IMVI melanoma
# [2] = system: MCF7 breast
# [3] = system: SW-620 colon
# [4] = system: OVCAR-5 ovarian
# [5] = system: NCI-H460 lung
# [6] = system: IGROV1 ovarian
# [7] = system: SNB-19 CNS
# [8] = system: HCT-15 colon
# [9] = system: SK-MEL-28 melanoma
# [10] = system: T-47D breast
# [11] = system: HCT-116 colon
# [12] = system: SK-MEL-5 melanoma
# [13] = system: HT29 colon
# [14] = system: CAKI-1 renal
# [15] = system: U251 CNS
# [16] = system: M14 melanoma
# [17] = system: SK-MEL-2 melanoma
# [18] = system: NCI/ADR-RES ovarian
# [19] = system: HCC-2998 colon
# [20] = system: MALME-3M melanoma
# [21] = system: SK-OV-3 ovarian
# [22] = system: A549 NSCLC
# [23] = system: K-562 leukemia
# [24] = system: SF-268 CNS
# [25] = system: DU-145 prostate
# [26] = system: SNB-75 CNS
# [27] = system: SF-295 CNS
# [28] = system: OVCAR-3 ovarian
# [29] = system: A498 renal
# [30] = system: HOP-92 NSCLC
# [31] = system: RXF 393 renal
# [32] = system: NCI-H23 lung
# [33] = system: EKVX NSCLC
# [34] = system: SF-539 CNS
# [35] = system: SR leukemia
# [36] = system: CCRF-CEM leukemia
# [37] = system: UACC-62 melanoma
# [38] = system: BT-549 breast
# [39] = system: OVCAR-8 ovarian
# [40] = system: PC-3 prostate
# [41] = system: KM12 colon
# [42] = system: HOP-62 NSCLC
# [43] = system: MDA-MB-231 breast
# [44] = system: COLO 205 colon
# [45] = system: HS 578T breast
# [46] = system: RPMI-8226 leukemia
# [47] = system: UACC-257 melanoma
# [48] = system: MOLT-4 leukemia
# [49] = system: OVCAR-4 ovarian
# [50] = system: NCI-H522 lung
# [51] = system: 786-0 renal
# [52] = system: HL-60(TB) leukemia
# [53] = system: NCI-H226 lung
# [54] = system: ACHN renal
# [55] = system: UO-31 renal
# [56] = system: TK-10 renal
# [57] = system: SN12C renal
smiles,measurement,setting,value
CN[C@@H](C)C(=O)N[C@H](C(=O)N1CCC[C@H]1C(=O)N[C@H]1c2ccccc2C[C@H]1OCC#CC#CCO[C@@H]1Cc2ccccc2[C@@H]1NC(=O)[C@@H]1CCCN1C(=O)[C@@H](NC(=O)[C@H](C)NC)C1CCCCC1)C1CCCCC1,GI50,[1],1700 nM
same,TGI,[1],3.38 µM
same,GI50,[2],1470 nM
same,TGI,[2],3.23 µM
same,GI50,[3],3.6 µM
same,TGI,[3],11.5 µM
same,GI50,[4],18.1 µM
same,TGI,[4],34.6 µM
same,GI50,[5],2660 nM
same,TGI,[5],6.77 µM
same,GI50,[6],6.41 µM
same,TGI,[6],21 µM
same,GI50,[7],3.24 µM
same,TGI,[7],8.87 µM
same,GI50,[8],17.5 µM
same,TGI,[8],40 µM
same,GI50,[9],1800 nM
same,TGI,[9],3.55 µM
same,GI50,[10],1810 nM
same,TGI,[10],4.39 µM
same,GI50,[11],3.68 µM
same,TGI,[11],14.1 µM
same,GI50,[12],2370 nM
same,TGI,[12],13.7 µM
same,GI50,[13],3.68 µM
same,TGI,[13],12.6 µM
same,GI50,[14],> 68.2 µM
same,TGI,[14],> 100 µM
same,GI50,[15],1940 nM
same,TGI,[15],4.79 µM
same,GI50,[16],5.72 µM
same,TGI,[16],18 µM
same,GI50,[17],1180 nM
same,TGI,[17],3.02 µM
same,GI50,[18],12 µM
same,TGI,[18],> 100 µM
same,GI50,[19],1770 nM
same,TGI,[19],4.45 µM
same,GI50,[20],< 10 nM
same,GI50,[21],< 10 nM
same,TGI,[21],< 10 nM
same,GI50,[22],15.5 µM
same,TGI,[22],31.5 µM
same,GI50,[23],2000 nM
same,TGI,[23],4.66 µM
same,GI50,[24],5.58 µM
same,TGI,[24],13.5 µM
same,GI50,[25],5.35 µM
same,TGI,[25],16.5 µM
same,GI50,[26],< 10 nM
same,TGI,[26],1160 nM
same,GI50,[27],514 nM
same,TGI,[27],20.8 µM
same,GI50,[28],2630 nM
same,TGI,[28],11.9 µM
same,GI50,[29],8.8 µM
same,TGI,[29],25.1 µM
same,GI50,[30],479 nM
same,TGI,[30],2480 nM
same,GI50,[31],< 37.1 nM
same,GI50,[32],796 nM
same,TGI,[32],6.98 µM
same,GI50,[33],6.86 µM
same,TGI,[33],20.6 µM
same,GI50,[34],< 10 nM
same,TGI,[34],1280 nM
same,GI50,[35],456 nM
same,TGI,[35],3.16 µM
same,GI50,[36],1100 nM
same,TGI,[36],4.27 µM
same,GI50,[37],4.57 µM
same,TGI,[37],9.97 µM
same,GI50,[38],< 10 nM
same,GI50,[39],452 nM
same,TGI,[39],8.31 µM
same,GI50,[40],6.04 µM
same,TGI,[40],18.7 µM
same,GI50,[41],2660 nM
same,TGI,[41],7.96 µM
same,GI50,[42],422 nM
same,TGI,[42],16 µM
same,GI50,[43],< 10 nM
same,GI50,[44],1780 nM
same,TGI,[44],3.55 µM
same,GI50,[45],4.62 µM
same,TGI,[45],12.1 µM
same,GI50,[46],1440 nM
same,TGI,[46],3.9 µM
same,GI50,[47],13.5 µM
same,TGI,[47],28.8 µM
same,GI50,[48],1920 nM
same,TGI,[48],4.57 µM
same,GI50,[49],< 10 nM
same,TGI,[49],10.9 µM
same,GI50,[50],62.3 nM
same,TGI,[50],2370 nM
same,GI50,[51],9.29 µM
same,TGI,[51],25.3 µM
same,GI50,[52],< 10 nM
same,TGI,[52],252 nM
same,GI50,[53],19.6 µM
same,TGI,[53],41.5 µM
same,GI50,[54],14.4 µM
same,TGI,[54],28.5 µM
same,GI50,[55],> 44.2 µM
same,TGI,[55],> 59.3 µM
same,GI50,[56],19.7 µM
same,TGI,[56],35.6 µM
same,GI50,[57],7.95 µM
same,TGI,[57],21.6 µM
